Patent US8507676B2, “Heterocyclic oxime compounds” (Novartis AG, priority 2009, dated 2013)

Assays:
[1] = biological target: c-MET receptor tyrosine kinase, GST-c-MET(969-1390) (Homo sapiens (Human), UniProt P08581); test: EPK c-MET profiling assay (LanthaScreen TR-FRET kinase assay); format: biochemical; settings: recombinant GST-c-MET(969-1390), 2 μM ATP, 60 minutes at room temperature; read-out: c-Met biochem (IC50 nM)
Protocol: A number of compounds of the present invention were assayed in an antibody based kinase phosphorylation assay as follows.
EPK c-MET Profiling Assay:
The EPK kinase assay for c-MET receptor tyrosine kinase was developed, using the purified recombinant GST-fusion protein, containing the cytoplasmic domain of the enzyme.
The kinase assay is based on the LanthaScreen™ technology. LanthaScreen™ is the detection of Time-Resolved Fluorescence Resonance Energy Transfer (TR-FRET) using lanthanide chelates to measure interactions between various binding partners. In a TR-FRET kinase assay, a long-lifetime lanthanide donor species is conjugated to an antibody that specifically binds to a phosphorylated product of a kinase reaction that is labeled with a suitable acceptor fluorophore. This antibody-mediated interaction brings the lanthanide donor and the acceptor into proximity such that resonance energy transfer can take place, resulting in a detectable increase in the FRET signal.
The kinase reactions were performed in 384 well microtiter plates in a total reaction volume of 10.05 μL. […]
Subsequently 5 μL of detection mix (50 mM Tris/HCl, 2 mM DTT, 0.05% Tween20, 20 μM sodium orthovanadate, 1% BSA, 1 nM Tb-PY20 antibody) were added to the stopped reactions. After 45 minutes incubation in dark at room temperature, the plates were measured in a Perkinelmer Envision fluorescence reader.

[2] = stability of the isolated compound at nucleophiles such as methanol; format: physicochemical; settings: degrades into starting material 75-R
Protocol: Previously prepared (E)-1-(3-(1-(5,7-difluoroquinolin-6-yl)ethyl)-[1,2,4]triazolo[4,3-b]pyridazin-6-yl)ethanone oxime (75-R, 100 mg, 0.271 mmol) in anhydrous THF (8 mL) was added diphosgene (0.1 mL, 0.829 mmol) dropwise at 0° C., and the reaction mixture was heated at 50° C. for 4 hr. Oil bath was removed, and the reaction mixture was cooled in an ice-water bath. An ammonia solution (0.5 N in dioxane, 8.0 mL, 4.0 mmol) was added dropwise. The temperature was allowed to rise to rt naturally, and the reaction mixture was stirred at rt overnight. Solvent was evaporated, and the residue was purified by column chromatography (8% methanol in ethyl acetate as eluent) to afford 64 mg (45.8% yield) of title compound as white solid, which was unstable at nucleophiles such as methanol, and was pro to degrade into starting material 75-R. ^1H-NMR (400 MHz, DMSO-d6) δ ppm 8.96 (d, 1H), 8.44 (d, 1H), 8.34 (d, 1H), 8.10 (d, 1H), 7.56-7.74 (m, 2H), 7.34 (s br, 2H), 5.27 (q, 1H), 2.02 (d, 3H), 2.03 (s, 3H). LCMS (method B): [MH]^+=412, tR=2.25 min.

Sequence of c-MET receptor tyrosine kinase, GST-c-MET(969-1390) (P08581 969-1390): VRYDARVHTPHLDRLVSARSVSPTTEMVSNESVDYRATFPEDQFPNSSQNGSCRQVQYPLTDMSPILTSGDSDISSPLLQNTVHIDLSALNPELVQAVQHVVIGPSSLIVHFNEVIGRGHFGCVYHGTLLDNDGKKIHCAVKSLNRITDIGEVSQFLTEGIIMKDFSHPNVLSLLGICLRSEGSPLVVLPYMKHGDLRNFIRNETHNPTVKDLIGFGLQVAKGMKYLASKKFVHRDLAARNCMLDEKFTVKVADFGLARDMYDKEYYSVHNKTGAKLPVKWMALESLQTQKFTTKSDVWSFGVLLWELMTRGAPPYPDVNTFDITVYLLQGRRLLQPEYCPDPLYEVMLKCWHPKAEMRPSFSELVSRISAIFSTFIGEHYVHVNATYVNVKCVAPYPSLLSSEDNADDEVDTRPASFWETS

IC50 [1] [nM]	stability at nucleophiles such as methanol [2]	SMILES
1.5		C/C(=N\OCCO)c1ccc2nnc(C(F)(F)c3ccc4ncccc4c3)n2n1 [Example 50, (E)-1-(3-(Difluoro(quinolin-6-yl)methyl)-[1,2,4]triazolo[4,3-b]pyridazin-6-yl)ethanone O-2-hydroxyethyl oxime]
	unstable	C/C(=N\OC(N)=O)c1ccc2nnc([C@H](C)c3c(F)cc4ncccc4c3F)n2n1 [Example 77-R, (R,E)-1-(3-(1-(5,7-difluoroquinolin-6-yl)ethyl)-[1,2,4]triazolo[4,3-b]pyridazin-6-yl)ethanone O-carbamoyl oxime]
